Experimental data published in patent publication US10731197B2, “Methods for detecting or quantifying CTP and CTP synthase activity” (Assistance Publique-Hopitaux de Paris, priority 2015, dated 2020).

Test system: CTP synthase
Assay: Determination of CTP synthase Michaelis-Menten constants Km and Vmax (CTP formation kinetics from UTP, LC-MS/MS)
Format: biochemical, human
Conditions: initial UTP 0 to 6 mM
Protocol: The cell extracts may be obtained from cultured cells (primary cultures of cells, blasts or cell lines), from blood derived cells. Particularly, mononuclear cells (PBMCs, peripheral blood mononuclear cells) have been isolated from peripheral blood. The cells were washed with phosphate buffer 0.1 M KH2PO4, pH=7.4, and then collected in HEPES buffer 70 mM, pH=8.0, containing 10 mM NaF and protease inhibitors leupeptin and pepstatin to the concentration of 10 μg/mL. The cells were immediately placed in a bath of ethanol and dry ice, and then placed for at least 1 hour at −80° C. The cells were then centrifuged for 30 minutes at 10 000 g at 4° C. The supernatant, containing the cytosolic fraction, was collected and contained proteins were dosed. One to 10 µg of proteins, prepared as described above, were used for measuring CTP synthase activity in a reaction mixture containing 4 μM internal standard, 1.25 mM UTP, 1.25 mM ATP, 0.31 mM GTP, 12.5 mM glutamine, 1.25 mM phosphoenolpyruvate, 0.62 mM EDTA and 10 mM NaF in 15 μL complete HEPES buffer 70 mM, pH=8.0. Enzymatic reaction was carried out at 37° C. for 90 minutes and then, the reaction tubes were cooled on ice and the enzymatic reaction was stopped by adding 15 μL HCLO4 1 M. The reaction tubes were vortexed and centrifuged for 5 minutes at 12 000 g at 4° C. The supernatants were diluted with the aqueous mobile phase A and transferred to a 384-well plate. Analyses were performed using a Waters chromatographic UPLC system (Acquity™ UPLC) connected to a Waters TQD quadrupole mass spectrometer, operated in the electrospray positive ion mode with selected reaction monitoring (SRM). […] Waters HSS T3, 1.8 μm particle size, 2.1×100 mm column, which was maintained at 30° C. throughout the analysis. The flow rate was 0.5 mL/min. Mobile phase A was 5 mM dibutylamine acetate in water and mobile phase B, 5 mM dibutylamine acetate in acetonitrile. Three distinct mobile-phase gradients were used (see Tables 6a to 6c below). Then the enzymatic constants of Michaelis-Menten, Km and Vmax were determined by performing CTP formation kinetics during 90 minutes by using initial concentrations of UTP ranging from 0 to 6 mM. The values obtained for Vmax and Km were of the same order of magnitude as those previously published with radio-isotopic methods (FIG. 4).

SMILES: O=c1ccn([C@@H]2O[C@H](COP(=O)(O)OP(=O)(O)OP(=O)(O)O)[C@@H](O)[C@H]2O)c(=O)[nH]1 [UTP, uridine triphosphate]
- Vmax (PBMCs activated, 90 minutes): 0.379 ± 0.091 nmol/min
- Vmax (activated PBMC protein extracts, 90 min): 0.3789 ± 0.091 nmol/min
- Vmax (resting PBMC protein extracts, 90 min): 0.083 ± 0.02 nmol/min
- Vmax (resting cells, 90 minutes): 0.083 ± 0.02 nmol/min
